For ten compounds, mortality results are on record in patent publication US5556859A, “N-(4-pyrimidinyl)amide pesticides” (DowElanco, priority 1994, dated 1996).

Experiment [1] deals with aster leafhopper (Macrosteles fascifrons). The experiment is described as follows: whole plant or invertebrate. To be noted: 24 h, read-out: percent mortality, ALH.
Experiment [2] deals with two spotted spider mite (Tetranychus urticae). The experiment is described as follows: whole plant or invertebrate. To be noted: 72 h, read-out: percent mortality, TSSM.
Experiment [3] concerns beet armyworm (Spodoptera exiqua). In words: whole plant or invertebrate. The settings on record: 144 h, read-out: percent mortality, BAW.
In experiment [4] the test system is cotton aphid (Aphis gossypii). The experiment is described as follows: whole plant or invertebrate. To be noted: 72 h, read-out: percent mortality, CA.
The subject of experiment [5] is German cockroach (Blattella germanicus). In words: whole plant or invertebrate. To be noted: 240 h, read-out: percent mortality, GECR.
Experiment [6] has as its system peanut root knot nematode (Meloidogyne arenaria). In words: whole plant or invertebrate. The settings on record: in Arachis hypogaea, read-out: percent mortality, RKN.
The subject of experiment [7] is Southern corn rootworm (Diabrotica undecimpuctata howardi Barber). In words: whole plant or invertebrate. The settings on record: in Zea mays, soil, read-out: percent mortality, SCRW.
In experiment [8] the test system is tobacco budworm (Heliothis virescens). The experiment is described as follows: Activity against tobacco budworm (TBW). Type of experiment: in vivo. The settings on record: 144 h, read-out: percent mortality, TBW. The essentials:
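Eighteen to twenty Heliothis virescens eggs were placed on half-strength artificial diet and sprayed one hour later with compound at 400 and 50 ppm, in aqueous Tween 20 with acetone/EtOH. Cups were held 6 days at room temperature. Ratings were based on live and dead larval counts and live larval size.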

Molecules are shown by their SMILES.

In the case of `CCc1nccc(NC(=O)Cc2ccc(Oc3ncc(Br)cn3)cc2)n1` [Compound 14, 4-(5-bromo-2-pyrimidinyloxy)phenyl-N-(2-ethyl-4-pyrimidinyl)acetamide], the mortality at 400 ppm came out at 100% in experiment [1]; 0% in experiment [2]; 100% in experiment [3]; 100% in experiment [4]; 0% in experiment [5]; 0% in experiment [6]. In addition, in experiment [8], the mortality at 400 ppm was 80%. For the same compound, the mortality at 24 µg/g in experiment [7] turned out to be 0%.

`O=C(Cc1ccc(Oc2cccc(C(F)(F)F)c2)cc1)Nc1ccnc(C2CCC2)n1` [Compound 71, 4-(3-trifluoromethylphenoxy)phenyl-N-(2-cyclobutyl-4-pyrimidinyl)acetamide]: the mortality at 400 ppm in experiment [1] was found to be 0%; in experiment [2], 0%; in experiment [3], 100%; in experiment [4], 0%; in experiment [5], 100%; in experiment [6], 0%. Besides, the mortality at 400 ppm in experiment [8] stood at 60%. Also, the mortality at 24 µg/g in experiment [7] was determined as 0%.

For `CCc1nccc(NC(=O)C(=CN(C)C)c2ccc(Oc3ccc(Cl)cc3)cc2)n1` [Compound 76, 3-(dimethylamino)-N-(2-ethyl-4-pyrimidinyl)-1-(4-(4-chlorophenoxy)phenyl)-2-propenamide], the mortality at 400 ppm amounted to 100% in experiment [1]; 80% in experiment [2]; 100% in experiment [3]; 100% in experiment [4]; 80% in experiment [5]; 100% in experiment [6]. Also, in experiment [8], the mortality at 400 ppm was determined as 100%. Also, in experiment [7], the mortality at 24 µg/g is 100%.

Consider `CCc1nccc(NC(=O)Cc2ccc(Oc3ccc(F)cc3)cc2)n1` [Compound 10, 4-(4-fluorophenoxy)phenyl-N-(2-ethyl-4-pyrimidinyl)acetamide], for which the mortality at 400 ppm in experiment [1] worked out at 100%; in experiment [2], 100%; in experiment [3] it was 100%; in experiment [4], 100%; in experiment [5], 100%; in experiment [6] it was 90%. In addition, in experiment [8], the mortality at 400 ppm stood at 100%. For the same compound, in experiment [7], the mortality at 24 µg/g came out at 100%.

For `CSc1nccc(NC(=O)Cc2ccc(Oc3ccc(F)cc3)cc2)n1` [Compound 6, 4-(4-fluorophenoxy)phenyl-N-(2-methylthio-4-pyrimidinyl)acetamide], the mortality at 400 ppm worked out at 100% in experiment [1]; 0% in experiment [2]; 100% in experiment [3]; 100% in experiment [4]; 60% in experiment [5]; 0% in experiment [6]. For the same compound, the mortality at 400 ppm in experiment [8] was determined as 90%. Besides, the mortality at 24 µg/g in experiment [7] is 100%.

In the case of `COCc1nccc(NC(=O)Cc2ccc(Oc3ccc(C(F)(F)F)cc3)cc2)n1` [Compound 70, 4-(4-trifluoromethylphenoxy)phenyl-N-(2-(methoxymethyl)-4-pyrimidinyl)acetamide], the mortality at 400 ppm in experiment [1] came to 0%; in experiment [2], 80%; in experiment [3] it was 100%; in experiment [4], 90%; in experiment [5] it was 100%; in experiment [6] it was 0%. Besides, the mortality at 400 ppm in experiment [8] stood at 60%. In addition, in experiment [7], the mortality at 24 µg/g stood at 0%.

Turning to `O=C(Cc1ccc(Oc2ccc(C(F)(F)F)cc2)cc1)Nc1ccncn1` [Compound 68, 4-(4-trifluoromethylphenoxy)phenyl-N-(4-pyrimidinyl)acetamide], the mortality at 400 ppm in experiment [1] is 0%; in experiment [2], 0%; in experiment [3], 0%; in experiment [4], 0%; in experiment [5], 0%; in experiment [6], 100%. Moreover, the mortality at 400 ppm in experiment [8] came out at 100%. Besides, the mortality at 24 µg/g in experiment [7] is 0%.

For `CCc1nccc(NC(=O)C(=CN(C)C)c2ccc(Oc3ccc(C(F)(F)F)cc3)cc2)n1` [Compound 73, 3-(dimethylamino)-N-(2-ethyl-4-pyrimidinyl)-1-(4-(4-trifluoromethylphenoxy)phenyl)-2-propenamide], the mortality at 400 ppm in experiment [1], in experiment [2], in experiment [3], in experiment [4], in experiment [5] and in experiment [6] was 100% in each case. Besides, the mortality at 400 ppm in experiment [8] came out at 100%. Further, the mortality at 24 µg/g in experiment [7] amounted to 100%.

For `CCc1nccc(NC(=O)Cc2ccc(OC(F)(F)C(F)F)cc2)n1` [Compound 55, 4-(1,1,2,2-tetrafluoroethoxy)phenyl-N-(2-ethyl-4-pyrimidinyl)acetamide], the mortality at 400 ppm in experiment [1], in experiment [2], in experiment [3], in experiment [4], in experiment [5] and in experiment [6] was 100% in each case. Also, the mortality at 400 ppm in experiment [8] worked out at 80%. In experiment [7], the mortality at 24 µg/g was 100%.

Consider `CCNC=C(C(=O)Nc1ccnc(CC)n1)c1ccc(Oc2ccc(C#N)cc2)cc1` [Compound 79, 3-(ethylamino)-N-(2-ethyl-4-pyrimidinyl)-1-(4-(4-cyanophenoxy)phenyl)-2-propenamide], for which the mortality at 400 ppm was 80% in experiment [1]; 100% in experiment [2]; 100% in experiment [3]; 100% in experiment [4]; 100% in experiment [5]; 100% in experiment [6]. In experiment [8], the mortality at 400 ppm came out at 100%. Besides, the mortality at 24 µg/g in experiment [7] was 100%.

As usually defined, the mortality is the percentage killed.
